Source: patent publication US12085575B2, “Compositions and methods for detecting proteinopathies” (BOARD OF SUPERVISORS OF LOUISIANA STATE UNIVERSITY AND …, priority 2011, dated 2024)

How the values were obtained:
Assay type in all cases: cell-based, human
[1] = system: LC3 and p62; experiment: UV-induced degradation of autophagy substrates LC3 and p62 (Western blot)
Description: Immunoblotting and immunofluorescence analysis: Immunoblotting analysis of proteins in cultured cells: Cells ([…]) were cultured in 35 mm tissue culture plates. After various experimental treatments, cells were lysed using an SDS-PAGE sample buffer. Cell lysates were then analyzed by SDS-PAGE (10% for p62 or 15% for LC3 and polyubiquitin conjugates) and immunoblotting analysis using either anti-ISG15 (raised against human ISG15 (23)), anti-ubiquitin (Sigma-Aldrich), anti-HA (gift from Dr. Walworth at Robert Wood Johnson Medical School/University of Medicine and Dentistry of New Jersey; Piscataway, NJ)), anti-LC3 (MBL International Corporation; Woburn, MA), or p62 (Sigma-Aldrich) antibodies, as indicated, using the ECL Western procedure (Pierce) and the BioRad VersaDoc Imaging System.
Because degradation of proteasome substrates is deregulated in A-T cells, the degradation of the autophagy substrates (autophagic flux) LC3 and p62 was assessed in UV-exposed A-T and ATM+ cells (55). For FIGS. 10A-10D, A-T and ATM+ cells were treated with Bafl (1 nM for 18 h) and then exposed to UV as indicated (25 mJ/m2). Three hours after recovery in the presence of inhibitors, cells were lysed. Cell lysates were analyzed by Western blotting for LC3 (FIG. 10A), p62 […], and actin (lower panels in FIGS. 10A and 10C) using their specific antibodies. Intensity of the total LC3 (LC3-I+II) and p62 proteins was quantitated using BioRad Quantity One software, and the results shown in FIGS. 10B and 10D, respectively. […] show average values (±SEM) of % degradation of LC3 and p62 from three independent experiments. All control values (−UV and +Bafl) are normalized to 100%, and values for experimental treatments were expressed as percent variations over control
UV induces aberrant degradation of autophagy substrate LC3 in A-T cells and brain slices. In FIG. 19A, LC3 degradation in UV-treated A-T cells is shown. […] Intensities of the total LC3 bands were quantitated using BioRad Quantity One software.

[2] = system: autophagosomes and autophagolysosomes; experiment: Cyt-ID and LysoTracker Red staining of autophagosomes, lysosomes and autophagolysosomes; settings: for fusion between autophagosomes and lysosomes: Bafl 1 nM 18 h; for mean # of green dots/cell (autophagosomes) / mean # of yellow dots/cell (autophagolysosomes): A-T/control shRNA cells, bafilomycin treated
Description: Autophagasome, lysosome and autophagolysosomes staining. Cells (100,000/point) were cultured on fibronectin-coated glass coverslips. Cells were treated with autophagy inhibitor Bafl (1 nM) (Sigma-Aldrich) for 18 hr. Cells were then exposed to UV radiation and allowed to recover in the presence of inhibitors for 3 h. Cells were then washed (2×1 min) with PBS and co-stained with Cyt-ID® (Cyt-ID® Autophagy Detection Kit from Enzo Lifesciences; Farmingdale, NY) and Lyso Tracker® Red DND-99 (Invitrogen) for 30 min at 37° C. in a CO2 incubator following manufacturer's protocol. Stained cells were then washed (2×1 min) with PBS and fixed with 4% paraformaldehyde for 20 min at room temperature. After washing with PBS (3×10 min), cells were mounted on slides in anti-fade mounting medium with DAPI (Invitrogen). Images were taken using a 63× oil immersion objective with a Leica DMRA2 upright microscope run through SlideBook software (Intelligent Imaging Innovations).
Autophagic flux was also monitored using Cyto-ID® and LysoTrack Red dyes. A-T and ATM+ cells were treated with Bafl (1 nM for 18 h) and then exposed to UV (25 mJ/m2) as indicated. Three hours after recovery in the presence of inhibitors, cells were co-stained with Cyt-ID® and LysoTracker Red® dyes. Fluorescence images of Cyt-ID® and LysoTracker Red® stained cells were made (Color images not shown). Green (autophagosomes; from Cyt-TD®-stained panels), red (lysosomes; from LysoTracker Red-stained panels), and yellow (autophagolysosomes; from merged panels) dots in A-T and ATM+ cells were counted manually using the ImageJ plug-in Cell Counter. Mean number of dots/cell is shown in FIGS. 11A and 11B, respectively. In FIGS. 11A and 11B, the number of autophagosomes (green dots) is represented by stippled bars; the number of lysosomes (red dots) is presented by lined bar; and the number of autophagolysosomes (yellow dots) is represented by clear (white) bars.
Bafilomycin inhibits autophagy at a late stage (47). Whether 3-methyl adenine (3-MA), an autophagy inhibitor known to inhibit autophagy at early stage by inhibiting formation of autophagosomes (56), could block UV-induced autophagic flux was tested in A-T/LV-control shRNA cells. Using Cyto-ID® and LysoTrack Red dyes as described herein in FIGS. 9A, 9B, 11A and 11B, the same criteria were used to judge autophagic activity in immunofluorescence analysis as described for FIGS. 11A and 11B.
The effect of 3-MA on UV-induced autophagic flux was tested in A-T/LV-ISG15 shRNA cells. A-T/LV-ISG15 shRNA cells were either left untreated or treated with 3-MA (10 nM for 18 h), and cells were then exposed to UV (25 mJ/m2). Three hours after recovery in the presence of the inhibitor, cells were co-stained with Cyt-ID® and LysoTracker Red® dyes. Fluorescence images of Cyt-ID® and LysoTracker Red® stained cells were made.

[3] = system: HA-polyubiquitylated proteins; experiment: UV-induced degradation of HA-polyubiquitylated proteins (anti-HA Western blot); settings: A-T cells; 50 nM Bafl

Compound: CO/C1=C\C(C)=C\[C@@H](C)[C@@H](O)[C@@H](C)C/C(C)=C/C=C/[C@H](OC)[C@@H]([C@@H](C)[C@@H](O)[C@H](C)[C@@]2(O)C[C@@H](O)[C@H](C)[C@@H](C(C)C)O2)OC1=O [Bafilomycin A1]
- UV-mediated degradation of LC3 and p62 ([1]; A-T cells, Bafl 1 nM 18 h, UV 25 mJ/m2): failed to protect
- LC3 and p62 levels ([1]; ATM+ cells treated with UV in the absence or presence of Bafl): no apparent changes
- UV-induced autophagic flux (LC3 degradation) ([1]; ATM+ cells, Bafilomycin A1 1 nM 18 h, UV 25 mJ): protected
- fusion between autophagosomes and lysosomes ([2]; A-T cells): failed to do so
- mean # of green dots/cell (autophagosomes) ([2]; with UV): 0.8 dots/cell
- mean # of yellow dots/cell (autophagolysosomes) ([2]; with UV): 1.5 dots/cell
- mean # of green dots/cell (autophagosomes) ([2]; without UV): 6 dots/cell
- mean # of yellow dots/cell (autophagolysosomes) ([2]; without UV): 5.8 dots/cell
- fusion between autophagosomes and lysosomes ([2]; ATM+ cells): blocked fusion
- UV-induced degradation of cellular proteins [3]: failed to protect
